Article PMC7380166, “How to Study the Metabolism of New Psychoactive Substances for the Purpose of Toxicological Screenings—A Follow-Up Study Comparing Pooled Human Liver S9, HepaRG Cells, and Zebrafish Larvae” (Frontiers in Chemistry, 2020)
Read-outs that look alike come from different tables or passages of the source.

Tests used:
zebrafish larvae = experiment: Zebrafish larvae exposure, metabolite identification by LC-HRMS/MS; conditions: larvae 4 dpf, 24 h, larvae extract, one replicate of n = 3, n.d. = not detected; for Absolute peak area, Zebrafish larvae [100 µM]: 100 µM parent NPS in medium; for Absolute peak area, Zebrafish larvae [25 μM]: 25 μM 4F-MDMB-BINACA in medium
HepaRG cells = experiment: Incubations with HepaRG cells, metabolite identification by LC-HRMS/MS; assay type: in vitro ADME, human; conditions: 24 h, cell culture medium, one replicate of n = 3, n.d. = not detected; for Absolute peak area, HepaRG [25 μM]: 25 μM parent NPS; for Absolute peak area, HepaRG [250 μM]: 250 μM parent NPS
[1] = n = 2, according to literature, cited from earlier work
[2] = 4F-PHP and metabolites, ref Wagmann et al., 2019a
[3] = 1P-LSD and metabolites, ref Wagmann et al., 2019b
[4] = 3,4-DMA-NBOMe and metabolites, ref Caspar et al., 2018
[5] = ephylone and metabolites, ref Wagmann et al., 2019a

Structure (SMILES) | Absolute peak area, Zebrafish larvae [100 µM] (zebrafish larvae) | Absolute peak area, HepaRG [25 μM] (HepaRG cells) | Absolute peak area, HepaRG [250 μM] (HepaRG cells) | also measured
CC(O)CCC(C(O)c1ccc(F)cc1)N1CCCC1 (stereo not shown) [MP9] | 3.78E+07 | 8.15E+05 | 6.48E+06 | 
CN1C[C@H](C(N)=O)C=C2c3cccc4[nH]cc(c34)C[C@H]21 [ML1] |  |  | 1.93E+06 | 
CC(C)(C)[C@H](NC(=O)c1nn(CCCC(=O)O)c2ccccc12)C(=O)O [MB10] |  | 1.68E+05 | 8.32E+05 | Absolute peak area, Zebrafish larvae [25 μM] (zebrafish larvae): 5.72E+04
CCCCC(C(O)c1ccc(F)cc1)N1CCCC1 (stereo not shown) [MP2] | 2.98E+07 | 1.18E+07 | 6.41E+07 | Detection in pHLS9 [25 µM] [1, 2]: +
CCNC(=O)[C@@H]1C=C2c3cccc4c3c(cn4C(=O)CC)C[C@H]2NC1 [ML12] | 4.11E+05 |  |  | 
CCNC(=O)[C@@H]1C=C2c3cccc4[nH]cc(c34)C[C@H]2N(C)C1 [ML4] | 6.17E+07 | 3.19E+07 | 2.58E+08 | Detection in pHLS9 [25 µM] [1, 3]: +
CC1(C)COC(=O)[C@H]1NC(=O)c1n[nH]c2ccccc12 [MB2] |  |  |  | Absolute peak area, Zebrafish larvae [25 μM] (zebrafish larvae): 5.13E+05
CCN(CC)C(=O)[C@@H]1C=C2c3cccc4c3C(O)(C[C@H]2N(C)C1)C(=O)N4 (stereo partly shown) [ML18, 2−oxo−3−hydroxy LSD] | 6.93E+06 | 7.00E+06 | 3.67E+06 | Detection in pHLS9 [25 µM] [1, 3]: +
CC(CCC(C(=O)c1ccc(F)cc1)N1CCCC1)OC1OC(C(=O)O)C(O)C(O)C1O (stereo not shown) [MP11] | 1.15E+06 |  |  | Detection in pHLS9 [25 µM] [1, 2]: +
CCNC(=O)[C@@H]1C=C2c3cccc4c3c(cn4C(=O)CC)C[C@H]2N(C)C1 [ML17] | 1.48E+08 |  |  | Detection in pHLS9 [25 µM] [1, 3]: +
CCC(=O)n1cc2c3c(cccc31)C1=C[C@@H](C(=O)N(CC)CC)CN[C@@H]1C2 [ML20] | 3.77E+07 | 3.19E+04 | 3.74E+06 | Detection in pHLS9 [25 µM] [1, 3]: +
CCC(=O)n1cc2c3c(cccc31)C1=C[C@@H](C(=O)N(CC)CC)CN(C)[C@@H]1C2O (stereo partly shown) [ML24] | 3.37E+07 |  |  | 
COc1ccccc1CNC(C)Cc1ccc(O)c(O)c1 (stereo not shown) [MN2] |  |  |  | Detection in pHLS9 [25 µM] [1, 4]: +
CN1C[C@H](C(=O)O)C=C2c3cccc4[nH]cc(c34)C[C@H]21 [ML2] | 3.63E+05 | 5.16E+06 | 1.39E+07 | 
CC(C)(C)[C@H](NC(=O)c1nn(CCCCF)c2ccccc12)C(=O)O[C@@H]1O[C@H](C(=O)O)[C@@H](O)[C@H](O)[C@H]1O [MB22] |  | 2.56E+07 | 3.25E+07 | 
CCCC(C(=O)c1ccc2c(c1)OCO2)N(O)CC (stereo not shown) [ME7] | 1.10E+06 |  | 1.75E+06 | Detection in pHLS9 [25 µM] [1, 5]: +
CCN(CCOC1OC(C(=O)O)C(O)C(O)C1O)C(=O)C1C=C2c3cccc4[nH]cc(c34)CC2N(C)C1 (stereo not shown) [ML28] |  |  | 1.07E+05 | 
CCNC(=O)[C@@H]1C=C2c3cccc4[nH]cc(c34)C[C@H]2NC1 [ML3] | 3.30E+05 | 3.89E+05 | 2.20E+06 | 
CCCCC(C(O[C@@H]1O[C@H](C(=O)O)[C@@H](O)[C@H](O)[C@H]1O)c1ccc(F)cc1)N1CCCC1 (stereo partly shown) [MP10] |  |  | 2.91E+04 | Detection in pHLS9 [25 µM] [1, 2]: +

Structure (SMILES) | Absolute peak area, Zebrafish larvae [100 µM] (zebrafish larvae) | Absolute peak area, HepaRG [25 μM] (HepaRG cells) | Absolute peak area, HepaRG [250 μM] (HepaRG cells) | also measured
CCCCC(C(=O)c1ccc(F)cc1)[N+]1([O-])CCCC1 (stereo not shown) [MP8] | 2.50E+06 |  | 1.47E+05 | 
CCC(=O)n1cc2c3c(cccc31)C1=C[C@@H](C(=O)O)CN(C)[C@@H]1C2 [ML8] | 1.07E+06 |  |  | 
CC(O)CCC(C(=O)c1ccc(F)cc1)N1CCCC1 (stereo not shown) [MP5] | 7.71E+06 | 1.14E+06 | 1.07E+07 | Detection in pHLS9 [25 µM] [1, 2]: +
CCCCC(N)C(=O)c1ccc(F)cc1 (stereo not shown) [MP1] | 4.83E+05 | 1.48E+05 | 1.82E+06 | Detection in pHLS9 [25 µM] [1, 2]: +
COc1ccc(CC(C)NCc2ccccc2O[C@@H]2O[C@H](C(=O)O)[C@@H](O)[C@H](O)[C@H]2O)cc1OC (stereo partly shown) [MN22] |  |  |  | Detection in pHLS9 [25 µM] [1, 4]: +
CCC(=O)n1cc2c3c(cccc31)C1=C[C@@H](C(=O)N(CC)CCO)CN(C)[C@@H]1C2 [ML23] | 3.31E+07 |  |  | 
COc1ccc(CC(C)N)cc1OC (stereo not shown) [MN1] | 3.29E+07 | 4.04E+07 | 9.84E+07 | Detection in pHLS9 [25 µM] [1, 4]: +
COC(=O)C(NC(=O)c1nn(CCCC(=O)OC2OC(C(=O)O)C(O)C(O)C2O)c2ccccc12)C(C)(C)C (stereo not shown) [MB24] |  |  |  | Absolute peak area, Zebrafish larvae [25 μM] (zebrafish larvae): 2.34E+05
CCN(CCO)C(=O)C1C=C2c3cccc4[nH]cc(c34)CC2N(C)C1 (stereo not shown) [ML14] | 3.90E+06 | 4.01E+05 | 4.63E+06 | 
COC(=O)C(NC(=O)c1nn(CCCCF)c2ccccc12)C(C)(C)COC1OC(C(=O)O)C(O)C(O)C1O (stereo not shown) [MB25] |  |  |  | Absolute peak area, Zebrafish larvae [25 μM] (zebrafish larvae): 1.75E+07
COc1ccc(CC(C)N(O)Cc2ccccc2O)cc1OC (stereo not shown) [MN9] | 3.57E+05 |  |  | 
CCN(CC)C(=O)C1C=C2c3cccc4[nH]cc(c34)C(O)C2NC1 (stereo not shown) [ML10] | 6.10E+04 |  |  | 
CCCC(NCC)C(O)c1ccc2c(c1)OCO2 (stereo not shown) [ME5] | 7.64E+06 |  |  | Detection in pHLS9 [25 µM] [1, 5]: +
CCCCC(C(=O)c1ccc(F)cc1)N1CCCC1=O (stereo not shown) [MP4] | 8.64E+05 |  |  | Detection in pHLS9 [25 µM] [1, 2]: +
COc1ccccc1CN(O)C(C)Cc1ccc(OC)c(OC)c1 (stereo not shown) [MN12] | 8.81E+06 |  | 4.60E+05 | 
CCCCC(C(=O)c1ccc(F)cc1)N1CCC(=O)C1 (stereo not shown) [MP3] | 7.58E+04 |  |  | 
COc1ccc(CC(C)NCc2ccccc2O)cc1OC (stereo not shown) [MN7] | 1.19E+08 | 1.19E+07 | 1.17E+08 | Detection in pHLS9 [25 µM] [1, 4]: +
CCN(CC)C(=O)[C@@H]1C=C2c3cccc4[nH]cc(c34)C[C@H]2NC1 [ML5] | 1.07E+07 | 1.75E+07 | 3.37E+07 | Detection in pHLS9 [25 µM] [1, 3]: +
CC1(CO)COC(=O)[C@H]1NC(=O)c1nn(CCCCF)c2ccccc12 (stereo partly shown) [MB12] |  |  |  | Absolute peak area, Zebrafish larvae [25 μM] (zebrafish larvae): 1.68E+06
